Test results reported in patent publication US9505758B2 (priority 2013, dated 2016).

Target: T1, influenza A virus (IAV) PA-Nter fragment (amino acids 1-209) (Influenza A virus, UniProt P31343)
T1 construct: PA-Nter fragment (amino acids 1-209); made in house
Assay: FRET endonuclease activity assay
Assay type: biochemical
Details: calculated from initial reaction velocities (v0); 0.5 μM PA-Nter, 1.6 μM RNA substrate

Structure (SMILES)	IC50 [nM]
O=C(O)c1cn(CC2(c3ccccc3)CCCC2)c2cccnc2c1=O	600
O=C(O)c1cn(Cc2ccccc2-c2ccccc2)c2cccnc2c1=O	760
O=C(O)c1cn(CC2(c3ccccc3)CCCC2)c2nccnc2c1=O	9700
O=C(O)c1cn(Cc2ccccc2-c2ccccc2)c2nccnc2c1=O	7800
O=C(O)c1cn(Cc2ccccc2-c2ccc(Cl)cc2)c2cccnc2c1=O	430
Cc1cnc2c(=O)c(C(=O)O)cn(Cc3ccccc3-c3ccccc3)c2c1	570
O=C(O)c1cn(Cc2ccccc2-c2ccccc2)c2cc(Br)cnc2c1=O [1-(Biphenyl-2-ylmethyl)-7-bromo-4-oxo-1,4-dihydro-1,5-naphthyridine-3-carboxylic acid]	1500
